# Data published in patent US6517856B1, “Insecticide resistance assay” (priority 1998, dated 2003).
# Where “and” joins values, the source holds several entries; their conditions need not be identical. Equal values may be shown once.
# Assays:
# [1] = test system: tobacco budworm (H. virescens); assay: Feeding disruption assay, CryIAc in Trypan Blue diet (fresh diet); type: in vivo, Heliothis virescens
# Procedure: (§1) The blue diet used in the feeding disruption bioassay is an agar based insect meal containing 20 mg of Trypan Blue (Direct Blue 14; Matheson Coleman & Bell, Norwood, Ohio) per 100 ml of standard artificial diet, and containing different concentrations of CryIAc (MVP, Mycogen). Larvae feeding on this colored diet produced blue feces which were easily distinguished by observation from feces derived from other food sources. Assays were conducted in 1-ounce clear plastic cups (Solo Cup Company, Urbana, Ill.; approximately […] in diameter and ¾ inches high) fitted with white cardboard tops, which are routinely used for insect rearing in the inventors' laboratories. The clear plastic allowed for the observation of blue feces without opening the container.
# Third instars from Wake (Bt susceptible), YHD2 (Bt resistant), and YHD2×Wake hybrid strains of the tobacco budworm (H. virescens) were used. Instars weighed 30±5 mg and were reared either on standard artificial diet or cotton plants. Instars were starved for one hour and then transferred to clear plastic assay cups, one larvae per cup. The starvation treatment synchronized the beginning of feeding between individuals once transferred to the dye-containing diet. The effect of different concentrations of CryIAc (0 to 0.064 μg CryIAc/ml diet) on the production of blue feces was examined for one to 24 hours at 27±1° C. and […] (light:dark). Studies were conducted in triplicate with 15 larvae per replicate. Once a diagnostic concentration and optimum assay time were identified from these experiments, the accuracy of resistance detection was investigated for individual resistant and susceptible neonates of H. virescens. These experiments were duplicated for 25 resistant and 25 susceptible budworms from two different budworm generations.
# (§2) The diagnostic concentration for resistance detection was also investigated for its ability to distinguish Wake susceptible H. virescens from H. zea. In addition, dose response studies were conducted to identify a concentration of Bt that would distinguish resistant YHD2 neonates of H. virescens from H. zea. Dose response studies were duplicated for 25 resistant (HD2) tobacco budworms and 25 bollworms from two generations at different doses of Bt ranging from 0 to 1000 μg CryIAc/ml of blue diet.
# H. zea = assay: as above; type: in vivo, Helicoverpa zea
# Procedure: as §1, §2
# H. virescens [2] = details: Gould et al. 1995; cited from earlier work
# H. virescens [3] = assay: Seven day mortality assay on neonates, CryIAc in artificial diet
# Procedure: Insects were reared in the laboratory at 27±1° C. with a 14:10 (light:dark) cycle on a standard artificial diet (Gould et al., 1995; Rose et al., 1995). The Wake strain of H. virescens used was originally collected in 1986 from tobacco in Wake county, N.C. The YHD2 strain was originally collected as eggs from seven tobacco fields in Yadkin County, N.C., in July of 1988. The YHD2 larvae were reared each generation for about seven days from egg hatch on 1000 μg of Bt toxin CryIAc (MVP, commercial grade, >98.0% δ endotoxin, Mycogen Corporation, San Diego) per ml of artificial diet and then transferred to insecticide-free diet for the remainder of development.
# Mortality data were analyzed using probit analysis (PROC PROBIT, SAS 1991).
# [4] = Wake third instars, 0.008 μg/ml, 24 hours
# [5] = Wake third instars, 0.032 μg CryIAc/ml diet, 24 hours
# [6] = Wake third instars, 0.032 μg CryIAc/ml, 4 hours
# [7] = Wake third instars, 0.032 μg CryIAc/ml, 8 hours
# [8] = YHD2 third instars, 0.008 μg/ml, 24 hours
# [9] = YHD2 third instars, 0.032 μg CryIAc/ml diet, 24 hours
# [10] = YHD2 third instars, 0.032 μg CryIAc/ml, 4 hours
# [11] = YHD2 third instars, 0.032 μg CryIAc/ml, 8 hours
# [12] = YHD2×Wake hybrid third instars, 0.032 μg/ml, 24 hours
# [13] = H. zea neonates, 0.032 μg CryIAc/ml diet, 24 hour
substance,measurement,setting,value
"CryIAc: Bacillus thuringiensis CryIAc δ-endotoxin, commercial formulation MVP (Mycogen), >98.0% δ endotoxin",blue fecal pellets per larva,[1]; [4],4 /larva
same,total blue fecal pellets,[1]; [4],63 fecal pellets/15 larvae
same,blue fecal pellets per larva,[1]; [5],0.8 /larva
same,total blue fecal pellets,[1]; [5],12 fecal pellets/15 larvae
same,blue fecal pellets per larva,[1]; [6],0.1 /larva
same,total blue fecal pellets,[1]; [6],1.6 fecal pellets/15 larvae
same,blue fecal pellets per larva,[1]; [7],0.3 /larva
same,total blue fecal pellets,[1]; [7],5 fecal pellets/15 larvae
same,percentage of larvae that had produced blue feces,"[1]; Wake third instars, 0.032 μg CryIAc/ml, after 14 hours, ±1 SE",2.2±3.9%
same,minimum fecal production by any individual,"[1]; YHD2 neonates, 500 μg CryIAc/ml blue diet, 24 hours",five
same,fecal pellets produced per 15 larvae,"[1]; YHD2 third instars reared on cotton, 0.032 μg CryIAc/ml Blue diet, 24 hours",> 140 fecal pellets per 15 larvae
same,blue fecal pellets per larva,[1]; [8],53 /larva
same,total blue fecal pellets,[1]; [8],800 fecal pellets/15 larvae
same,blue fecal pellets per larva,[1]; [9],31 /larva
same,total blue fecal pellets,[1]; [9],470 fecal pellets/15 larvae
same,blue fecal pellets per larva,[1]; [10],3 /larva
same,total blue fecal pellets,[1]; [10],46 fecal pellets/15 larvae
same,blue fecal pellets per larva,[1]; [11],9 /larva
same,total blue fecal pellets,[1]; [11],129 fecal pellets/15 larvae
same,percentage producing one or more blue fecal pellets,"[1]; YHD2 third instars, 0.032 μg CryIAc/ml, in 5 hours, ±1 SE",85±3.9%
same,percentage producing one or more blue fecal pellets,"[1]; YHD2 third instars, 0.032 μg CryIAc/ml, in 9 hours, ±1 SE",95±3.9%
same,percentage producing one or more blue fecal pellets,"[1]; YHD2 third instars, 0.032 μg CryIAc/ml, in 14 hours, ±1 SE",100.0±0.0%
same,blue fecal pellets per larva,[1]; [12],5 /larva
same,total blue fecal pellets,[1]; [12],68 fecal pellets/15 larvae
same,percentage producing 0-2 fecal pellets in 24 h,"[1]; laboratory susceptible H. virescens strain, 0.032 μg MVP per ml diet",88.0%
same,number of H. virescens producing six blue fecal pellets (the maximum),"[1]; susceptible (Wake) neonates, 0.032 μg CryIAc/ml diet, 24 hour",1 out of 50
same,blue feces production,"[1]; susceptible (Wake) third instars reared on cotton, 0.032 μg CryIAc/ml Blue diet",Essentially no blue feces were produced
same,blue fecal pellets produced per larva,H. zea; [13],≥ 7 blue fecal pellets
same,percentage producing ≧15 blue fecal pellets,H. zea; [13],99%
same,percentage producing no blue feces,"H. zea; H. zea neonates, 500 μg CryIAc/ml blue diet, 24 hours",100%
same,percentage producing 0-2 fecal pellets in 24 h,"H. zea; laboratory susceptible H. zea colony, 1000 μg MVP per ml diet",98.0%
same,resistance of YHD2 strain to CryIAc compared to the Wake strain,H. virescens [2],> 2000 fold
same,LC50,"H. virescens [3]; Wake strain, neonates, seven day mortality",0.0017 μg CryIAc/ml diet
same,LC50,H. virescens [3]; YHD2(female)×Wake(male) hybrid F1 larvae,0.129 μg CryIAc/ml diet
same,LC50,"H. virescens [3]; YHD2 strain, neonates, seven day mortality",2952 μg CryIAc/ml diet and 2952.0 μg CryIAc/ml diet
